Measurements taken from patent US20260165323A1, “USE OF STROBILURIN TYPE COMPOUNDS FOR COMBATING PHYTOPATHOGENIC FUNGI CONTAINING AN AMINO ACID SUBSTITUTION F129L IN THE MITOCHONDRIAL CYTOCHROME B PROTEIN CONFERRING RESISTANCE TO QO […]” (priority 2022, published 2026).

Legend:
[1] = system: Phakopsora pachyrhizi containing the amino acid substitution F129L in the mitochondrial cytochrome b protein; assay: Use Example 1: protective control of soybean rust on soybeans (PHAKPA P2); assay type: in vivo; conditions: inoculated 2 days after spraying, % diseased leaf area
Outline: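 Soybean seedling leaves sprayed to run-off with compound in acetone/DMSO–Wettol–water at the stated concentration, kept 2 days at 23-27° C, then inoculated with Qo-inhibitor-resistant F129L P. pachyrhizi. After 24 h at ~95% RH, 20-24° C, and up to 14 days in greenhouse, % diseased leaf area scored visually.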

[2] = system: Botrytis cinerea (BOTRCI); assay: Use example 6: microtest, growth of Botrytis cinerea (BOTRCI); assay type: cell-based; conditions: relative growth vs compound-free control (100%); for Growth at 8 ppm (%) BOTRCI Use Ex. 6 / Growth at 125 ppm (%) BOTRCI Use Ex. 6: 7 days after inoculation; for Growth (%) BOTRCI Use Ex. 6: 0.5 ppm, 7 days
Description: (§1) The active compounds were formulated separately as a stock solution having a concentration of 10000 ppm in dimethyl sulfoxide. The stock solutions were mixed according to the ratio, pipetted onto a micro titer plate (MTP) and diluted with water to the stated concentrations. A spore suspension of one of the following fungal plant pathogens in aqueous bio malt solution • was then added for the respective use example: • Use example 5: Alternaria solani (ALTESO) • Use example 6: Botrytis cinerea (BOTRCI) • Use example 7: Cercospora sojina (CERCSO) • Use example 8: Colletotrichum orbiculare (COLLLA) • Use example 9: Leptosphaeria nodorum (LEPTNO) • Use example 10: Drechslera teres (PYRNTE) containing the amino acid substitution F129L in the mitochondrial cytochrome b protein conferring resistance to Qo inhibitors • Use example 11: Sclerotinia sclerotiorum (SCLESC), solute with ultrasonic from a filter membrane
(§2) The plates were placed in a water vapor-saturated chamber at a temperature of 18° C. Using an absorption photometer, the MTPs were measured at 405 nm 7 days after the inoculation.
(§3) The measured parameters were compared to the growth of the active compound-free control variant (100%) and the fungus-free blank value to determine the relative growth in % of the pathogens in the respective active compounds.

[3] = system: Cercospora sojina (CERCSO); assay: Use example 7: microtest, growth of Cercospora sojina (CERCSO); assay type: cell-based; conditions: relative growth vs compound-free control (100%); for Growth at 8 ppm (%) CERCSO Use ex. 7: 7 days after inoculation; for Growth (%) CERCSO Use Ex. 7: 7 days
Description: as §1, §2, §3

[4] = system: Phakopsora pachyrhizi containing the amino acid substitution F129L in the mitochondrial cytochrome b protein; assay: Use Example 2: protective control of soybean rust on soybeans (PHAKPA P6); assay type: in vivo; conditions: inoculated six days after spraying, % diseased leaf area
Outline: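 Compound in acetone and/or DMSO with Wettol (99:1), diluted with water, was sprayed to run-off on potted soybean seedlings. After six days at 23–27°C and 60–80% RH, plants were inoculated with a Qo-resistant F129L strain and held 24 h at about 95% RH. Percent diseased leaf area was scored visually after up to 14 days.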

[5] = system: Puccinia recondita; assay: Use Example 3: curative control of brown rust on wheat (PUCCRT K4); assay type: in vivo; conditions: % diseased leaf area
Outline: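 Wheat seedlings inoculated with Puccinia recondita spores, held 24 h at 95–99% RH, 20–24° C in dark, then 3 days in greenhouse before spraying to run-off (curative). Compound in acetone/DMSO–Wettol–water. After 5–7 further days at 20–24° C, 65–70% RH, % diseased leaf area scored visually.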

[6] = system: Puccinia recondita; assay: Use Example 4: preventative control of brown rust on wheat (PUCCRT P7); assay type: in vivo; conditions: inoculated seven days after spraying, % diseased leaf area
Outline: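 First two leaves of potted wheat seedlings sprayed to run-off with compound in acetone/DMSO–emulsifier–water, then inoculated with Puccinia recondita spores seven days later. Plants held 24 h dark at 95–99% RH and 20–24 °C, then 9–11 days in greenhouse; diseased leaf area (%) scored visually.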

[7] = system: Alternaria solani (ALTESO); assay: Use example 5: microtest, growth of Alternaria solani (ALTESO); assay type: cell-based; conditions: 0.125 ppm; relative growth vs compound-free control (100%), 7 days after inoculation
Description: as §1, §2, §3

[8] = system: Sclerotinia sclerotiorum (SCLESC); assay: Use example 11: microtest, growth of Sclerotinia sclerotiorum (SCLESC); assay type: cell-based; conditions: relative growth vs compound-free control (100%), 7 days after inoculation; for Growth (%) SCLESC Use ex. 11: 8 ppm
Description: as §1, §2, §3

[9] = system: Leptosphaeria nodorum (LEPTNO); assay: Use example 9: microtest, growth of Leptosphaeria nodorum (LEPTNO); assay type: cell-based; conditions: relative growth vs compound-free control (100%); for Growth at 125 ppm (%) LEPTNO Use Ex. 9: 7 days after inoculation; for Growth (%) LEPTNO Use Ex. 9: 125 ppm, 7 days, Table 9
Description: as §1, §2, §3

[10] = system: Drechslera teres (PYRNTE) containing the amino acid substitution F129L in the mitochondrial cytochrome b protein; assay: Use example 10: microtest, growth of Drechslera teres (PYRNTE) F129L; assay type: cell-based; conditions: 125 ppm, relative growth vs compound-free control (100%), 7 days; for Growth (%) PYRNTE F129L Use ex. 10: Table 13; for Growth (%) PYRNTE F129L Use Ex. 10: Table 7
Description: as §1, §2, §3

[11] = system: Colletotrichum orbiculare (COLLLA); assay: Use example 8: microtest, growth of Colletotrichum orbiculare (COLLLA); assay type: cell-based; conditions: relative growth vs compound-free control (100%), 7 days; for Growth (%) COLLLA Use ex. 8: 8 ppm; for Growth (%) COLLLA Use Ex. 8: 125 ppm
Description: as §1, §2, §3

Compound | % PHAKPA (F129L) Disease level P2 at 4 ppm [1] [%] | % PHAKPA (F129L) Disease level P2 at 16 ppm [1] [%] | % PHAKPA (F129L) Disease level P6 at 4 ppm [4] [%] | % PHAKPA (F129L) Disease level P6 at 16 ppm [4] [%] | % PUCCRT Disease level K4 at 4 ppm [5] [%] | % PUCCRT Disease level K4 at 16 ppm [5] [%] | % PUCCRT Disease level P7 at 4 ppm [6] [%] | % PUCCRT Disease level P7 at 16 ppm [6] [%] | other results
CNC(=O)/C(=N/OC)c1cccc(Cl)c1CO/N=C(\COC)c1cccc(C(F)(F)F)c1 [compound 56] | 15 | 0 | 23 | 0 | 8 | 0 | 2 | 2 | Growth at 8 ppm (%) BOTRCI Use Ex. 6 [2]: 64%; Growth at 8 ppm (%) CERCSO Use ex. 7 [3]: 13%
CNC(=O)/C(=N/OC)c1cccc(C)c1CO/N=C(\COC)c1cccc(C(F)(F)F)c1 [reference compound] |  |  |  |  |  |  |  |  | Growth at 8 ppm (%) BOTRCI Use Ex. 6 [2]: 78%; Growth at 8 ppm (%) CERCSO Use ex. 7 [3]: 28%
COC/C(=N\OCc1c(C)cccc1/C(=N\OC)C(=O)OC)c1ccc(F)cc1 [reference compound] |  |  |  |  |  |  |  |  | Growth (%) ALTESO Use ex. 5 [7]: 97%; Growth (%) SCLESC Use ex. 11 [8]: 89%
COC/C(=N\OCc1c(Br)cccc1/C(=N\OC)C(=O)OC)c1ccccc1 [compound 57] | 41 | 3 | 48 | 21 |  |  | 60 | 13 | Growth at 125 ppm (%) BOTRCI Use Ex. 6 [2]: 0%; Growth at 125 ppm (%) SCLESC Use Ex. 11 [8]: 2%; Growth at 125 ppm (%) LEPTNO Use Ex. 9 [9]: 1%
COC/C(=N\OCc1c(Cl)cccc1/C(=N\OC)C(=O)OC)c1ccc(F)cc1 [compound 1, Methyl (2E)-2-[3-chloro-2-[[(Z)-[1-(4-fluorophenyl)-2-methoxy-ethylidene]amino]oxymethyl]phenyl]-2-methoxyimino-acetate] | 20 | 1 | 57 | 11 | 87 | 77 | 53 | 23 | Growth (%) ALTESO Use ex. 5 [7]: 73%; Growth (%) SCLESC Use ex. 11 [8]: 72%
CNC(=O)/C(=N/OC)c1cccc(C)c1CO/N=C(\COC)c1c(F)cc(F)cc1F [I.3-A-43860, reference compound] |  |  |  |  |  |  |  |  | Growth (%) PYRNTE F129L Use ex. 10 [10]: 36%; Growth (%) COLLLA Use ex. 8 [11]: 62%
CO/C=C(/C(=O)OC)c1cccc(Br)c1CO/N=C(\COC)c1c(F)cc(F)cc1F [compound 58] | 2 | 0 | 0 | 0 | 27 | 15 | 57 | 30 | Growth (%) COLLLA Use Ex. 8 [11]: 26%; Growth (%) CERCSO Use Ex. 7 ([3]; 125 ppm, Table 9): 63%; Growth (%) LEPTNO Use Ex. 9 [9]: 47%
CNC(=O)/C(=N/OC)c1cccc(Cl)c1CO/N=C(\COC)c1c(F)cc(F)cc1F [compound 31] | 0 | 0 | 3 | 0 | 40 | 7 | 17 | 4 | Growth (%) PYRNTE F129L Use ex. 10 [10]: 21%; Growth (%) COLLLA Use ex. 8 [11]: 34%
CO/C=C(/C(=O)OC)c1cccc(Cl)c1CO/N=C(\COC)c1c(F)cc(F)cc1F [compound 12, Methyl-(E)-2-[3-chloro-2-[[(Z)-[2-methoxy-1-(2,4,6-trifluorophenyl)ethylidene]amino]oxymethyl]phenyl]-3-methoxy-prop-2-enoate] | 2 | 0 | 4 | 0 | 23 | 18 | 17 | 9 | Growth (%) COLLLA Use Ex. 8 [11]: 20%
CO/N=C(/C(=O)OC)c1cccc(Br)c1CO/N=C(\C)c1ccccc1 [reference compound] |  |  |  |  |  |  |  |  | Growth at 125 ppm (%) BOTRCI Use Ex. 6 [2]: 69%; Growth at 125 ppm (%) SCLESC Use Ex. 11 [8]: 39%; Growth at 125 ppm (%) LEPTNO Use Ex. 9 [9]: 19%
CO/C=C(/C(=O)OC)c1cccc(C)c1CO/N=C(\COC)c1c(F)cc(F)cc1F [I.2-A-43860, reference compound] |  |  |  |  |  |  |  |  | Growth (%) COLLLA Use Ex. 8 [11]: 43%; Growth (%) CERCSO Use Ex. 7 ([3]; 125 ppm, Table 9): 90%; Growth (%) LEPTNO Use Ex. 9 [9]: 64%
COC/C(=N\OCc1c(Cl)cccc1/C(=N\OC)C(=O)OC)c1ccc(Cl)cc1 [compound 34] | 68 | 22 | 80 | 25 | 75 | 70 | 48 | 9 | Growth (%) PYRNTE F129L Use Ex. 10 [10]: 4%; Growth (%) BOTRCI Use Ex. 6 [2]: 35%; Growth (%) CERCSO Use Ex. 7 ([3]; 31 ppm): 56%
COC/C(=N\OCc1c(C)cccc1/C(=N\OC)C(=O)OC)c1ccc(Cl)cc1 [I.1-A-83, reference compound] |  |  |  |  |  |  |  |  | Growth (%) PYRNTE F129L Use Ex. 10 [10]: 23%; Growth (%) BOTRCI Use Ex. 6 [2]: 53%; Growth (%) CERCSO Use Ex. 7 ([3]; 31 ppm): 83%
